In US20090131444A1 (published 2009):
Structures can show the parent of a compound that is named as a salt.

Row | melting point | SMILES
1 | > 230 °C (dec.) | COc1ccc2nccc(NC(=O)[C@@H]3CC[C@@H](NCc4cc5c(cn4)OCCO5)CO3)c2n1 (as salt: hydrochloride)
2 | 220 °C | COc1ccc2ncc(Cl)c(NC(=O)[C@@H]3CC[C@@H](NCc4cc5c(cn4)OCCO5)CO3)c2c1 (as salt: hydrochloride)
3 | 191 °C | COc1ccc2ncc(Cl)c(OC[C@@H]3CC[C@@H](NCc4cc5c(cn4)OCCO5)CO3)c2c1 (as salt: hydrochloride)
